From publication PMC12086361, “Downstream Signaling of Muscarinic M4 Receptors Is Regulated by Receptor Density and Cellular Environment” (Pharmacology Research & Perspectives, 2025)

Molecular target: T1, human M4 receptor (hM4) (Homo sapiens, UniProt P08173)
T1 construct: gene CHRM4
T1 sequence (P08173 1-479): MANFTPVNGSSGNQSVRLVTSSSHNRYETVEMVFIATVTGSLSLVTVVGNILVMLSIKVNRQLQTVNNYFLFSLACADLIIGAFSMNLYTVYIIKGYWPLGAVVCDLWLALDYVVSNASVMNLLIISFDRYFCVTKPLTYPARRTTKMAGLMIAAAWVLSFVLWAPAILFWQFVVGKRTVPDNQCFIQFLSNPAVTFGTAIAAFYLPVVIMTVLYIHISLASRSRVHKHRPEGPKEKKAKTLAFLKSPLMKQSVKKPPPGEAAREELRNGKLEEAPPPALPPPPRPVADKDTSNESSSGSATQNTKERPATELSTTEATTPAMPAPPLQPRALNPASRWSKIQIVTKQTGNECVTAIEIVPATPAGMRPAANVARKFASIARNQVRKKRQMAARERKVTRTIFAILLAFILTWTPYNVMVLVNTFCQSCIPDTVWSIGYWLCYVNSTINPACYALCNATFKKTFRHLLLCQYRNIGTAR
Experiment: cADDis cAMP sensor FLIPR assay, HEK293 hM4, decrease of forskolin-stimulated cAMP
Assay type: cell-based
Details: read-out: HEK-293, hM4, cAMP (48 h) / Gi pEC50 /slope (converted)
Description: cADDis cAMP sensor FLIPR assay, HEK293 hM4, decrease of forskolin-stimulated cAMP on human M4 receptor (hM4)

Row | Compound | EC50 [nM]
1 | CCOC(=O)N1CC2(CCC(N3CCC(N(CC)C(C)=O)CC3)C2)C1 (stereo not drawn) [compound 6, compound-6] | 0.407
2 | COC(=O)N1CCC(N2CCC(n3c(=O)n(C)c4ccccc43)CC2)CC1 [compound 110, compound-110] | 0.646
3 | C[N+](C)(C)CC#CCN1CCCC1=O [oxotremorine-M] | 1.2
